Test results from ChEMBL document CHEMBL5143635, “Synthesis and biological evaluation of artemisinin derivatives as potential MS agents” (Bioorg Med Chem Lett, 2022).
Activity calls are given as the source filed them. The rule behind the calls is not given here.

Legend:
[1] = Inhibition of Th17 cells differentiation in C57BL/6 mouse spleen CD4+ve Th cells assessed as decrease in IL-17A production at 10 uM measured after 4 days by flow cytometry analysis; format: functional; details: C57BL/6, CD4+ve Th, 96 h, time 4 day
CD4+ve Th = experiment: Inhibition of Th17 cells differentiation in C57BL/6 mouse spleen CD4+ve Th cells assessed as decrease in IL-17A production at high concentrations measured after 4 days by flow cytometry analysis; format: functional, cell-based; details: time 4.0 day
[2] = Inhibition of Th17 cells differentiation in C57BL/6 mouse spleen CD4+ve Th cells assessed as decrease in IL-17A production at 10 uM measured after 4 days by flow cytometry analysis (reference value: 23%); format: functional; details: C57BL/6, CD4+ve Th, 96 h, time 4 day
[3] = Inhibition of Th1 cells differentiation in C57BL/6 mouse spleen CD4+ve Th cells assessed as decrease in IFNgamma production at 10 uM measured after 4 days by flow cytometry analysis (reference value: 41%); format: functional; details: C57BL/6, CD4+ve Th, 96 h, time 4 day
[4] = Inhibition of Th17 cells differentiation in C57BL/6 mouse spleen CD4+ve Th cells assessed as decrease in IL-17A production at 10 uM measured after 4 days by flow cytometry analysis (reference value: 28%); format: functional; details: C57BL/6, CD4+ve Th, 96 h, time 4 day
Mus musculus = experiment: Immunosuppressive activity in MOG 35-55 residues/pertussis toxin-immunized autoimmune encephalomyelitis C57BL/6 mouse model assessed as suppression of disease progression by measuring clinical cumulative score at 100 mg/kg,po administered daily from day 3 measured for 21 days; format: functional, organism-based; details: time 21.0 day
[5] = Toxicity in MOG 35-55 residues/pertussis toxin-immunized autoimmune encephalomyelitis C57BL/6 mouse model assessed as change in body weight at 100 mg/kg,po administered daily from day 3 measured for 21 days; format: organism-based; details: in vivo, 504 h, time 21 day

Row | SMILES | inhibition at 10 µM [1] [%] | inhibition (CD4+ve Th) | also measured
1 | C[C@H]1[C@@H](SC(=O)Nc2ccc(OC(F)(F)F)cc2)O[C@@H]2O[C@@]3(C)CC[C@H]4[C@H](C)CC[C@@H]1[C@@]24OO3 | < 6 | Active | –
2 | C[C@H]1[C@@H](S)O[C@@H]2O[C@@]3(C)CC[C@H]4[C@H](C)CC[C@@H]1[C@@]24OO3 | – | – | inhibition at 10 µM [2]: 12%
3 | C[C@H]1[C@@H](SC(=O)CCCC[C@H]2CCSS2)O[C@@H]2O[C@@]3(C)CC[C@H]4[C@H](C)CC[C@@H]1[C@@]24OO3 | < 6 | Active | –
4 | C[C@@H]1CC[C@H]2[C@@](C)(Cl)[C@@H](OC(=O)Nc3ccc(OC(F)(F)F)cc3)O[C@@H]3O[C@@]4(C)CC[C@@H]1[C@]32OO4 | < 6 | Active | –
5 | C[C@@H]1CC[C@H]2[C@@](C)(F)[C@@H](OC(=O)Nc3ccc(OC(F)(F)F)cc3)O[C@@H]3O[C@@]4(C)CC[C@@H]1[C@]32OO4 | < 6 | Active | –
6 | C[C@H]1[C@@H](OC(=O)CCCC[C@H]2CCSS2)O[C@@H]2O[C@@]3(C)CC[C@H]4[C@H](C)CC[C@@H]1[C@@]24OO3 | – | – | inhibition at 10 µM [3]: 3%; inhibition at 10 µM [4]: 8%; Activity (Mus musculus): Active; Activity [5]: Toxic
7 | C[C@@H]1CC[C@H]2C(C)(C)[C@@H](OC(=O)Nc3ccc(OC(F)(F)F)cc3)O[C@@H]3O[C@@]4(C)CC[C@@H]1[C@]32OO4 | < 6 | Active | –
